Read-outs that look alike come from different tables or passages of the source.
Tests used:
[1] = Cu(I) affinity by competition with bathocuproine disulfonate (BCS), UV-visible; type: binding; conditions: for BCS equivalents (number of equivalents of BCS relative to Cu necessary to displace 50% of the copper complexed by the ligand): [Cu]0 = 0.9 [L]o, 20 mM phosphate buffer, pH 7.4, 298 K; for Kapp for Cu(I): pH 7.4, 20 mM phosphate buffer; for Cu/Zn Sel. (log Kapp(Cu) - log Kapp(Zn)): Cu(I) versus Zn(II)
Description: Since the —SH thiol functions of the chelating agents are capable of becoming oxidized in air, all the solutions were prepared in a glovebox under an argon atmosphere. Ligand solutions were then prepared, before each experiment, using water that had been deoxygenated and purified with a Millipore Milli-Q® system containing 20 mM of a solution of phosphate buffer (pH=7.4) and of acetonitrile (v/v: 9/1).
This method uses 5,5′-dithiobis-2-nitrobenzoic acid (DNTB) as indicator, each free thiol group present in the ligand producing 1 equivalent of TNB^2− (ε^412 nm (TNB^2−)=14 150 M^−1.cm^−1, ε^412 nm being the molar extinction coefficient for TNB^2− at 412 nm). The concentrations of the ligand solution are between 30 and 100 μm.
The solutions of Cu(I) copper were prepared by dissolving an appropriate amount of Cu(CH3CN)4 PF6 in deoxygenated acetonitrile. The final concentration is determined by adding an excess of sodium bathocuproine disulfonate (Na2BCS) and by measuring the absorbance of the Cu(BCS)2^3− (λmax=483 nm, ε=13 300 M^−1.cm^−1).
The affinity constants were measured by means of a known competitor having a strong affinity for Cu(I), bathocuproine disulfonate (BCS), which forms Cu(I) complexes of known stability according to the reaction below:
The higher this percentage, the higher the affinity of the sulfur-containing ligand for Cu(I).
The complexes of Cu(I) copper with the ligands are quantitatively determined with bathocuproine disulfonate (BCS) with the aim of measuring their affinity constants. […] The formation of the complex is then carried out by stirring the mixture for 10 minutes under argon.
Aliquots of a solution of bathocuproine disulfonate (BCS) in the same buffer solution are then added to the ligand-copper complex.
The UV-visible spectra are then recorded, and the absorbance stability is verified before the addition of the other aliquots.

[2] = Apparent complexation constants of known chelating agents, Hg(II); type: binding; conditions: pH = 7.4; log Kapp(Hg) - log Kapp(Zn)
Text: (§1) In general, the formation of a complex from a metal M and n ligands L is written: M+nL⇄[M(L)n]
(§2) Associated with this reaction is an apparent complexation constant log Kapp, where: Kapp=[ML]/[M][L]tot in which: • [ML] is the concentration of complex, • [M] is the concentration of metal, and • [L]tot is the concentration of […] ligand (whatever its protonated form).

[3] = pH = 7.4; difference matches the Cu(II) and Zn(II) values of the table
Text: as §1, §2

[4] = Apparent complexation constants of known chelating agents, Cu(I); type: binding; conditions: pH = 7.4; difference matches the Cu(I) and Zn(II) values of the table
Description: Associated with this reaction is an apparent complexation constant log Kapp, where: Kapp=[ML]/[M][L]tot in which: • [ML] is the concentration of complex, • [M] is the concentration of metal, and • [L]tot is the concentration of free ligand (whatever its protonated form).

[5] = Hg(II) affinity by competition with EDTA; type: binding
Description: For Hg(II), which has a very high affinity for thiolate ligands, we performed a competition with EDTA having a known affinity constant (cf. Table IV) according to the following reaction: HgL+EDTA→L+HgEDTA
A solution of mercury is prepared by dissolving HgCl2 in water. An HgL complex is formed by adding aliquots of this mercury solution to a solution of ligand in a 20 mM phosphate buffer solution at pH=7.4, up to 0.9 equivalent. The change in the LMCT band for Hg(II) at 290 nm is subsequently followed by titration with a 5 mM solution of Na2EDTA.

For NC(=O)[C@H](CS)NC(=O)CN(CC(=O)N[C@@H](CS)C(N)=O)CC(=O)N[C@@H](CS)C(N)=O [Compound 6, NTA(CysNH2)3], the “BCS equivalents (number of equivalents of BCS relative to Cu necessary to displace 50% of the copper complexed by the ligand)” value [1] was 50 equivalents and the “Kapp for Cu(I)” value [1] was 10^19.

Molecule O=C(O)CN(CCN(CC(=O)O)CC(=O)O)CC(=O)O [EDTA, ethylenediaminetetraacetic acid] has a Hg/Zn selectivity [2] of 5 and a Cu/Zn selectivity [3] of 2.3.

With CC(C)(S)[C@@H](N)C(=O)O [Pen, D-penicillamine] the Hg/Zn selectivity [2] was 9.1 and the Cu/Zn selectivity [4] was 2.5.

In the case of OCC(S)CS (stereo not drawn) [BAL, 2,3-dimercaptopropanol], the Hg/Zn selectivity [2] is reported as 12.2.

For CCOC(=O)C(CS)NC(=O)CN(CC(=O)NC(CS)C(=O)OCC)CC(=O)NC(CS)C(=O)OCC (stereo not drawn) [Compound 4, NTA(CysOC2H5)3], the “Hg/Ca Sel. (log Kapp(Hg) - log Kapp(Ca))” value ([5]; Hg(II) versus Ca(II)) was >19.5, the “Hg/Zn Sel. (log Kapp(Hg) - log Kapp(Zn))” value ([5]; Hg(II) versus Zn(II)) was >13.4 and the “Cu/Ca Sel. (log Kapp(Cu) - log Kapp(Ca))” value ([1]; Cu(I) versus Ca(II)) was >16. For the same molecule, the “Cu/Zn Sel. (log Kapp(Cu) - log Kapp(Zn))” value [1] was 9.9, the “BCS equivalents (number of equivalents of BCS relative to Cu necessary to displace 50% of the copper complexed by the ligand)” value [1] was 57 equivalents and the “Kapp for Cu(I)” value [1] was 10^19.

For CCOC(=O)[C@H](CS)NC(=O)CN1CCN(CC(=O)N[C@@H](CS)C(=O)OCC)CCN(CC(=O)N[C@@H](CS)C(=O)OCC)CC1 [Compound 9, NOTA(CysOC2H5)3], the “Cu/Zn Sel. (log Kapp(Cu) - log Kapp(Zn))” value [1] was 7.5-9.5 and the “BCS equivalents (number of equivalents of BCS relative to Cu necessary to displace 50% of the copper complexed by the ligand)” value [1] was 12 equivalents.

With O=C(CN(CC(=O)NC(CS)C(=O)O)CC(=O)NC(CS)C(=O)O)NC(CS)C(=O)O (stereo not drawn) [Compound 3, NTA(CysOH)3] the “BCS equivalents (number of equivalents of BCS relative to Cu necessary to displace 50% of the copper complexed by the ligand)” value [1] was 3.5 equivalents.

NCCNCCNCCN [Trien, triethylenetetramine] showed a Hg/Zn selectivity [2] of 12.7 and a Cu/Zn selectivity [3] of 8.1.

— patent publication US8148359B2, “Chelating agents of metal ions, their methods of preparation and their applications” (Commissariat a l'Energie Atomique, priority 2009, dated 2012)
